Measured values from ChEMBL document CHEMBL3507680, “University of Dundee, Gates Library screen for HepG2 cell viability”.
“And” between values parts separate entries of the source, which are not always exact repeats. Equal entries are not always repeated.

Test: Human HepG2 cell viability assay in 384 well format
Type: toxicity, cell-based
Parameters: dose 125 nL, time 70.5 hour; cytotoxicity at 70.5 h: concentration not given beside the values
Settings: for cytotoxicity at 70.5 h: HepG2 cells, read-out: Inhibition

CCN1Cc2nccn2CC(COCc2csc(C)n2)C1 (centres undefined)
cytotoxicity at 70.5 h: -3.32%

Cc1ncsc1CCN1CCC(N(C)Cc2ncc(C(C)C)o2)C1 (centres undefined)
cytotoxicity at 70.5 h: 38.4%

O=S1(=O)c2cccnc2OC(Cc2ccccc2)CN1CC1CC1 (centres undefined)
cytotoxicity at 70.5 h: 1.6%

Cc1ccnc(NC(=O)CCc2cnn(C)c2C)c1
cytotoxicity at 70.5 h: -4.47%

CN(CC(=O)NC1CCOCC1)C1CCCN(c2cccnn2)C1 (centres undefined)
cytotoxicity at 70.5 h: -2.74%

CN(CCCc1ccc(C(F)(F)F)cc1)Cc1nccn1C
cytotoxicity at 70.5 h: -12%

CC1CCc2nn(CCNC(=O)Cc3cccs3)c(=O)cc2C1 (centres undefined)
cytotoxicity at 70.5 h: -2.17%

O=c1c2cnc(N3CCOCC3)nc2ccn1-c1ccccc1
cytotoxicity at 70.5 h: -7.35%

CCS(=O)(=O)N1C[C@@H]2CN(Cc3cnn(C)c3)CCO[C@@H]2C1
cytotoxicity at 70.5 h: 2.4%

COc1cccc(CC2CCCN2Cc2nccn2C)c1 (centres undefined)
cytotoxicity at 70.5 h: -5%

CS(=O)(=O)CC(=O)N1C[C@H]2CCC[C@@]2(COCc2ccncc2)C1
cytotoxicity at 70.5 h: -3.98%

Cc1cccc(OCC(O)CN2CCN(c3nccs3)CC2)c1 (centres undefined)
cytotoxicity at 70.5 h: -3.61%

Cc1ccnc(C2CCN(C(=O)c3cnn(C)c3)C2)n1 (centres undefined)
cytotoxicity at 70.5 h: 12.7%

Cc1ccc(C(=O)NC2CCN(Cc3noc(C(C)C)n3)CC2)s1
cytotoxicity at 70.5 h: -8.2%

COc1ccc(-n2c(COC(C)C)n[nH]c2=O)cc1
cytotoxicity at 70.5 h: -6.26%

O=C(c1ccc2ccccc2n1)N1CCC2(CCN2c2ncccn2)C1 (centres undefined)
cytotoxicity at 70.5 h: 2.64%

O=C(c1ccon1)N1CCCC(n2cncn2)C1 (centres undefined)
cytotoxicity at 70.5 h: -1.78%

Cc1cc(C(=O)N(CC(C)C)CC(O)c2ccc(F)cc2)[nH]n1 (centres undefined)
cytotoxicity at 70.5 h: -2.51%

CC[C@H]1CN(S(C)(=O)=O)CC[C@H]1CC(=O)NCCOC
cytotoxicity at 70.5 h: 9.53%

CC(C)=CCC1(C(=O)O)CCCN(CCC(=O)NC2CC2)C1 (centres undefined)
cytotoxicity at 70.5 h: -25.9%

CC(=O)N1CCC(N2CCOC[C@H]2c2nc(-c3ccc(Cl)s3)c[nH]2)CC1
cytotoxicity at 70.5 h: -2.53%

COC1CCN(C(=O)Nc2cc(C(F)(F)F)c[nH]c2=O)CC1
cytotoxicity at 70.5 h: -6.98%

O=C(NC1CC1)C1CCc2nnc(-c3cccc(C(F)(F)F)c3)n21 (centres undefined)
cytotoxicity at 70.5 h: -11.5%

COC(=O)C(CCSC)NC(=O)Cc1c(C)nn(-c2ccccc2)c1C (centres undefined)
cytotoxicity at 70.5 h: 1.93%

O=C1CN(Cc2nnc(-c3ccc(Br)cc3)o2)CCN1
cytotoxicity at 70.5 h: 4.44%

O=C(O)CCNC(=O)N1CCc2c([nH]c3ccc(Cl)cc23)C1
cytotoxicity at 70.5 h: -6.59%

CC[C@H]1CN(C(=O)c2cccc(-n3cnnc3)n2)CC[C@@]1(C)O
cytotoxicity at 70.5 h: 19.7%

Cc1cccc2c1nc1n2[C@@H](CNC(=O)NC(C)C)COC1
cytotoxicity at 70.5 h: -0.416%

CCN(CC)C(=O)C1CCCN(CC(=O)Nc2c(C)nn(CC)c2C)C1 (centres undefined)
cytotoxicity at 70.5 h: 22.3%

O=C(Cc1ccc(F)cc1)NCCNS(=O)(=O)c1ccc(F)c(F)c1
cytotoxicity at 70.5 h: -1.6%

O=C(CSc1nnc[nH]1)NCc1cccs1
cytotoxicity at 70.5 h: -2.74%

CN1CCC(c2nnc3ccc(C(=O)N4CCCCC4)cn23)C1 (centres undefined)
cytotoxicity at 70.5 h: -9.66%

O[C@@H]1C[C@@](CNCC2CCCC2)(COc2cccnc2)C[C@@H]1O
cytotoxicity at 70.5 h: -6.04%

COc1cccc2c1N(Cc1noc(C3CC3)n1)CCC2
cytotoxicity at 70.5 h: 39.7%

COCC1CC2(CCN(Cc3cccc(C#N)c3)CC2)CN1C(C)C (centres undefined)
cytotoxicity at 70.5 h: -4.89%

CCc1nc2c(N3CCC4(CC3)CC(=O)N(CC)C4)ncnc2o1
cytotoxicity at 70.5 h: -1.14%

CN(C)S(=O)(=O)N1C[C@@H]2CC[C@H](C1)N(CCC(=O)NCc1ccco1)C2
cytotoxicity at 70.5 h: 2.74%

CC(CN1CCC2(CC1)N=C(c1cccnc1)NC2=O)c1ccccc1 (centres undefined)
cytotoxicity at 70.5 h: -7.3%

O=C(c1ccsc1)N1CCO[C@@H]2CN(Cc3ccco3)CC[C@@H]2C1
cytotoxicity at 70.5 h: 0.973%

CCCSCC(=O)N1CCCC(CO)(CCC)C1 (centres undefined)
cytotoxicity at 70.5 h: -22.8%

COc1ccc2cnn(CC(=O)NC3CCCCC3)c(=O)c2c1OC
cytotoxicity at 70.5 h: 1.17%

CC(C)(C)c1nnc(CN2CCCC2c2noc(C3CC3)n2)o1 (centres undefined)
cytotoxicity at 70.5 h: -8.8%

CCNc1cc2c(nn1)CCN(C(=O)C1Cc3ccccc3O1)C2 (centres undefined)
cytotoxicity at 70.5 h: -12.9%

OC(CN1CCC(CNCc2ccccn2)CC1)c1ccccc1 (centres undefined)
cytotoxicity at 70.5 h: 1.35%

O=C(NCC(F)(F)F)c1ccncc1
cytotoxicity at 70.5 h: 12.7%

CNC(=O)c1ccccc1NCc1ncnn1C
cytotoxicity at 70.5 h: -96.8%

OC1(CNc2ccc(F)cc2)CCNCC1
cytotoxicity at 70.5 h: -7.97%

CS(=O)(=O)CC(=O)N1C[C@@H]2COC[C@]2(c2nnc(C3CC3)o2)C1
cytotoxicity at 70.5 h: 4.38%

CN(C)CCn1c2c(ccc1=O)CCN(C(=O)c1ccoc1)CC2
cytotoxicity at 70.5 h: -1.95%

CC(C)N1CCC2(CC1)CC(=O)N(Cc1cc(F)cc(F)c1)C2
cytotoxicity at 70.5 h: -2.98%

O=C(c1cc[nH]n1)N1CCCC1c1cc(Nc2ccccn2)n[nH]1 (centres undefined)
cytotoxicity at 70.5 h: -11.2%

CCOc1ccccc1Oc1ccc(CN)cn1
cytotoxicity at 70.5 h: -7.48%

Cn1cnnc1C1CCCN(C(=O)c2ccccc2Cl)C1 (centres undefined)
cytotoxicity at 70.5 h: -4.06%

CC(O)CN(C(=O)NC1CC1)C(C)C (centres undefined)
cytotoxicity at 70.5 h: 29.8%

Cc1cnc(C)c(N2C[C@H]3OC(=O)N(C4CCCC4)[C@H]3C2)n1
cytotoxicity at 70.5 h: -6.45%

CCc1noc(C(C)N2CCOCC2)n1 (centres undefined)
cytotoxicity at 70.5 h: 3.88%

Cn1ncc2c(NCC3CCS(=O)(=O)C3)nc(C3CCCC3)nc21 (centres undefined)
cytotoxicity at 70.5 h: -3.73%

Cc1cc(C(=O)N2CC[C@@H]3CN(C)S(=O)(=O)[C@@H]3CC2)no1
cytotoxicity at 70.5 h: -7.25%

Cc1nc(C)n(CC2CCCN(CCCc3ccccc3)C2)n1 (centres undefined)
cytotoxicity at 70.5 h: 4.81%

COCCOCC(=O)N1CCC(O)(c2ccc3nc(C)ccc3c2)CC1
cytotoxicity at 70.5 h: -5.95%

CN1CCC(C(=O)N2CCC(c3ccc4c(N)n[nH]c4n3)CC2)CC1
cytotoxicity at 70.5 h: -0.601%

CN(Cc1ccc(-n2ccnc2)cc1)Cc1ncc[nH]1
cytotoxicity at 70.5 h: -6.87%

Cc1cccc(S(=O)(=O)N2C[C@H]3C[C@H](C(=O)NC4CCC4)[C@@H](C2)O3)c1
cytotoxicity at 70.5 h: -10.5%

N#Cc1ccnc(NCc2cc3n(n2)CCCN(C(=O)C2CCC2)C3)c1
cytotoxicity at 70.5 h: 1.71%

CCc1nc(CN2CCCC(N(C)Cc3cnn(C)c3)C2)no1 (centres undefined)
cytotoxicity at 70.5 h: -10.2%

COc1ccc(CN(C)Cc2ccnc(C3CCCO3)n2)cc1 (centres undefined)
cytotoxicity at 70.5 h: -2.06%

O=C1NCCCC[C@@H]1NC(=O)C1(N2CCCCC2)Cc2ccccc2C1
cytotoxicity at 70.5 h: -4.27%

Cc1cc(C2CCCN(CCc3ccccn3)C2)n[nH]1 (centres undefined)
cytotoxicity at 70.5 h: -17%

Cc1nc(N2CCCC2)nc2c1CCN(C(=O)CC1CCCC1)CC2
cytotoxicity at 70.5 h: -9.31%

Cc1ccccc1N1CC2(CCN(Cc3nccn3C)C2)CC1=O (centres undefined)
cytotoxicity at 70.5 h: -13.1%

CCNc1ncc2c(n1)CN(c1ccc(OC(F)(F)F)cc1)C2=O
cytotoxicity at 70.5 h: -15.6%

COc1cccc(Cl)c1-c1cc(CN)ccc1F
cytotoxicity at 70.5 h: -13.8%

CCn1ncc2[nH]c(-c3cc(OC)c(OC)cc3OC)nc21
cytotoxicity at 70.5 h: 29.7%

COc1ccc(-n2ccc(C(=O)N(CCN(C)C)C(C)C)n2)cc1
cytotoxicity at 70.5 h: -10.3%

Cc1noc(C)c1CCC(=O)N1CCN(CCn2cncn2)CC1
cytotoxicity at 70.5 h: -1.34%

CSc1ncccc1C(=O)N1CCC2(CC1)OCCCC2O (centres undefined)
cytotoxicity at 70.5 h: -3.78%

CC1CN(CC(=O)NC2CCCC2)CCN1c1ccc2nncn2n1 (centres undefined)
cytotoxicity at 70.5 h: -20.8%

Cc1occc1C(=O)Nc1ccnc(OC2CCOC2)c1 (centres undefined)
cytotoxicity at 70.5 h: -7.45%

O=C(CN1CCc2ccccc21)Nc1ccc(OC(F)F)cc1
cytotoxicity at 70.5 h: 9.55%

COCCS(=O)(=O)c1ncc(CN(C)CC(C)C)n1Cc1ccccc1
cytotoxicity at 70.5 h: -1.85%

CCS(=O)(=O)N1CCC(c2nc3ccc(-c4ccccc4)cn3n2)CC1
cytotoxicity at 70.5 h: -5.21%

Fc1ccc(CN2CCCN(Cc3cscn3)CC2)cc1
cytotoxicity at 70.5 h: 23.4%

Cc1ccc(CC2COCCN(S(C)(=O)=O)C2)nc1 (centres undefined)
cytotoxicity at 70.5 h: 12.3%

Cc1cc(NC(=O)C(C)Cn2cncn2)no1 (centres undefined)
Inhibition (hepg2, 70.5 h, 70.5 h): 6.977% and -4.493%

c1cncc(-c2ccnn2CN2CCC3(CC2)OCCO3)c1
cytotoxicity at 70.5 h: -5.34%

CC(NCCCc1cnn(C)c1)c1ccc(Cl)s1 (centres undefined)
cytotoxicity at 70.5 h: 2.71%

c1coc(-c2nnc(CN(Cc3cccs3)CC3CCCO3)o2)c1 (centres undefined)
cytotoxicity at 70.5 h: -6.66%

Cc1ccc(CN2CCc3ncnc(-c4ccoc4)c3CC2)o1
cytotoxicity at 70.5 h: 2.47%

O=S(=O)(N1CCCCC1)N1CCCN(CC2CCCO2)CC1 (centres undefined)
cytotoxicity at 70.5 h: 1.43%

CCc1nc(CN2CCCN(C(=O)C3CCOC3)CC2)cs1 (centres undefined)
cytotoxicity at 70.5 h: 7.45%

CC(=O)N[C@H]1CCO[C@@H](c2cccc(NC(=O)Cc3ccccc3)c2)C1
cytotoxicity at 70.5 h: 10.3%

CC(C)Nc1nc2c(c(NC3CC3)n1)CCN(Cc1nccn1C)CC2
cytotoxicity at 70.5 h: -1.1%

CCc1nc(N2CCCC(O)(CO)CC2)ncc1C (centres undefined)
cytotoxicity at 70.5 h: -0.208%

Cc1cnn(-c2ccc(S(=O)(=O)N(C)CC(C)(CO)CO)cc2F)c1
cytotoxicity at 70.5 h: 17.1%

CCc1ccccc1Nc1noc2c1CN(C(=O)CCOC)CC2
cytotoxicity at 70.5 h: 18.8%

Cc1nc(C2CCCN2C(=O)CCOCc2ccccc2)no1 (centres undefined)
cytotoxicity at 70.5 h: -8.94%

NC1(C(=O)NCCC2CN(Cc3ccco3)CCO2)CCCC1 (centres undefined)
cytotoxicity at 70.5 h: 29.8%

CS(=O)(=O)Nc1cccc(CNC(=O)CCc2ccsc2)c1
cytotoxicity at 70.5 h: -1.95%

O=C(Nc1ccc(N2CCCC2)nc1)N1CCc2ccccc2C1
cytotoxicity at 70.5 h: 3.91%

O=C(Cn1ccc2ccc(F)cc21)NC[C@@H]1CCCN2CCCC[C@H]12
cytotoxicity at 70.5 h: 8.28%

CCC(c1ccc(F)cc1)S(=O)(=O)CCO (centres undefined)
cytotoxicity at 70.5 h: 15.3%

CC(=O)N1CCC(c2cnc(-c3c(C)nn(C)c3C)cn2)CC1
cytotoxicity at 70.5 h: -9.85%

Nc1nnc(SCC(=O)NCC(O)c2ccccc2)s1 (centres undefined)
cytotoxicity at 70.5 h: 18.6%

CCc1nnc2n1CCN(CCC(=O)Nc1cc(C)on1)C2
cytotoxicity at 70.5 h: -5.92%

CS(=O)(=O)N1C[C@H]2CCCN(Cc3nccs3)[C@H]2C1
cytotoxicity at 70.5 h: 14.5%

O=S1(=O)CCC(NCCn2cncc2-c2ccc3c(c2)CCCO3)C1 (centres undefined)
cytotoxicity at 70.5 h: -8.18%

CN(CC1(C)COC1)C(=O)c1cc(-c2ccn(C)n2)nc2ccccc12
cytotoxicity at 70.5 h: 14.1%

CN(C)C(=O)C1OC2(CCNCC2)c2ccccc21 (centres undefined)
cytotoxicity at 70.5 h: -6.23%

COc1cccc(N2Cc3nc(=O)n(C(C)C)n3C2=O)c1
cytotoxicity at 70.5 h: -13.3%

COc1ccc(N2CCN(C(=O)COc3nccc(C)n3)CC2)cc1
cytotoxicity at 70.5 h: -3.87%

CC(C)CN1Cc2nc(N3CCCC3)ncc2C1=O
cytotoxicity at 70.5 h: 19.8%

Cc1occc1C(=O)N1C[C@H]2CCCC(OCc3cccnc3)[C@H]2C1 (some centres undefined)
cytotoxicity at 70.5 h: -4.67%

CN1CCN(Cc2noc(-c3cc(-c4ccc(F)cc4)n[nH]3)n2)CC1
cytotoxicity at 70.5 h: 31.6%

CC(C)N(CC(C)(C)O)C(=O)NC1CC1
cytotoxicity at 70.5 h: 20.8%
